# Experimental data from the NIST ThermoML archive (doi:10.1016/j.tca.2009.03.004).
# ± gives the expanded uncertainty stated by the source.
# Experiments:
# [1] = Molar enthalpy of transition or fusion; conditions: DSC
# [2] = DTA
SMILES,Molar enthalpy of transition or fusion ([1]; Crystal),Molar enthalpy of transition or fusion ([1]; Nematic liquid crystal),Triple point temperature ([2]; Crystal),Triple point temperature ([2]; Nematic liquid crystal)
"CCCCCCCCOc1ccc(C=Nc2ccc(OCCCC)cc2)cc1 [benzenamine, 4-butoxy-N-[[4-(octyloxy)phenyl]methylene]-]",10.6 ± 0.287 kcal/mol,0.43 ± 0.0359 kcal/mol,380.75 ± 0.5 K,389.55 ± 0.5 K
CCCCCCCCOc1ccc(C=Nc2ccc(OCC)cc2)cc1 [4-ethoxy-N-[[4-(octyloxy)phenyl]methylene]benzenamine],9.66 ± 0.263 kcal/mol,0.268 ± 0.0311 kcal/mol,373.95 ± 0.5 K,395.55 ± 0.5 K
